Reference: patent publication US8071376B2, “Production of oligodendrocytes from placenta-derived stem cells” (Anthrogenesis Corporation, priority 2005, dated 2011)

Columns and labels:
OPCs [1] = settings: cells cultured 72 hrs with 1 μM staurosporine; background 10,000 cpm; Ebner 2000; cited from earlier work
[2] = test system: oligodendrocyte progenitors; experiment: Quantitative 3H-thymidine incorporation proliferation assay; type: cell-based; settings: recombinant growth factor; background 500-1000 cpm without growth factor
Method: Proliferation assay: The ability of oligodendrocyte progenitors to generate a mitogenic response to specific ligands is measured in a quantitative ^3H-thymidine incorporation assay. Cells are exposed to growth factors, in a dose range that brackets the maximal response to FGF and PDGF, in order to determine the half-maximal response. Responses range from a background of 500-1000 cpm (no growth factor) to 10,000 cpm (recombinant PDGF-AA), and the assay is sufficiently sensitive to accurately detect partial mitogenic responses. All cell proliferation assays are optionally performed at least three independent times. For qualitative assays, cells are exposed to mitogens with 50 μM BrdU (Sigma) present for the final 4 hrs, and DNA synthesis is monitored by dual immunofluorescence for BrdU (Osterhout et al., J. Neurosci. 17:9122-9132 (1997)) and a second lineage marker.
Proliferation assays are performed on cells that have been removed from mitogens for 24 hrs prior to exposure to recombinant growth factors to reduce background levels of DNA synthesis. […] Nucleic acid is recovered using an automatic harvester (Brandel) and the incorporated radioactivity measured by scintillation counting. […]

OPCs [3] = settings: background migration 1,000 cells/mm^2; Armstrong et al. 1990; cited from earlier work

Compound	32P incorporation into 3'-ends of DNA (OPCs [1])	mitogenic response, 3H-thymidine incorporation [2]	chemotaxis, cells migrated (OPCs [3])
CN[C@@H]1C[C@H]2O[C@@](C)([C@@H]1OC)n1c3ccccc3c3c4c(c5c6ccccc6n2c5c31)C(=O)NC4 [staurosporine]	100,000 cpm	–	–
PDGF-AA: recombinant (human) polypeptide growth factor, oligodendrocyte progenitor cell mitogen	–	10,000 cpm	4,000 cells/mm^2
